Assay results as given in patent US7112553B1, “Pesticidal indazole or benzotriazole derivatives” (Syngenta Limited, priority 1999, dated 2006).

Experiments:
[1] = system: Phytophthora infestans lycopersici (PHYTIN) on tomatoes; assay type: in vivo; settings: 100 ppm foliar spray; tomatoes inoculated one day after chemical application (Prot)
[2] = system: Puccinia recondita (PUCCRT) on wheat; settings: in vivo
[3] = system: Uncinula necator (UNCINE) on vines; settings: in vivo
[4] = system: Pyricularia oryzae (PYRIOR) on rice; assay type: in vivo; settings: 100 ppm foliar spray; rice inoculated one day after chemical application (Prot)

SMILES | PRCO (Percentage Reduction from Control) PHYTIN Prot [1] [%] | PRCO (Percentage Reduction from Control) PUCCRT Prot [2] [%] | PRCO (Percentage Reduction from Control) UNCINE Erad [3] [%] | PRCO (Percentage Reduction from Control) PYRIOR Prot [4] [%]
CCCC(C)n1nc2ccc(CC(=O)Nc3snc(C)c3Cl)cc2n1 (stereo not shown) [Sample 30] | 100 | 100 | 100 | –
Cc1nsc(NC(=O)Cc2ccc3nn(Cc4ccc(F)cc4)nc3c2)c1Cl [Sample 4] | – | – | – | 92
CCCCCn1nc2ccc(CC(=O)Nc3snc(C)c3Cl)cc2n1 [Sample 9] | 100 | 99 | – | 100
Cc1nsc(NC(=O)Cc2ccc3nn(CC(F)(F)F)nc3c2)c1Cl [Sample 8] | – | – | – | 100
Cc1nsc(NC(=O)Cc2ccc3nn(C)nc3c2)c1Cl [Sample 2] | – | – | – | 87
Cc1nsc(NC(=O)Cc2ccc3nn(-c4ccc(C(F)(F)F)cc4Cl)nc3c2)c1Cl [Sample 11] | – | – | – | 100
CCCn1nc2ccc(CC(=O)N=c3sn(COCC)c(C)c3Cl)cc2n1 [Sample 34, N-[2-ethoxymethyl-4-chloro-3-methylisothiazolin-5-ylidene]-(2-propylbenzo-triazol-5-yl)acetamide] | 81 | – | 100 | 93
CCCn1nc2ccc(CC(=O)Nc3snc(C)c3Cl)cc2n1 [Sample 1, N-(4-chloro-3-methylisothiazol-5-yl)-(2-propylbenzotriazol-5-yl)acetamide] | 100 | 100 | – | 100
CCC(C)n1nc2ccc(CC(=O)Nc3snc(C)c3Cl)cc2n1 (stereo not shown) [Sample 31] | 100 | 100 | 100 | –
